Data on six compounds can be found in ChEMBL document CHEMBL1142611, “Neovibsanin F and its congeners, rearranged vibsane-type diterpenes from Viburnum suspensum” (J Nat Prod, 2006).

pIC50: −log10 of the molar value. ≈ marks a conversion by molar mass, not a printed value.

For one series, the system named is Artemia. The series can be described thus: Toxicity in brine shrimp at 100 ug/mL. It is filed as organism-based. The conditions noted are these: in vivo.
Series [1] is described as follows: Toxicity in brine shrimp. The format is organism-based. The conditions noted are these: artemia, in vivo; read-out: LD50 (the source's name).
Another series relates to KB. The series can be described thus: Cytotoxicity against human KB cells. The format is functional, cell-based.

As for `CC(=O)C[C@@H]1OCC2=C1[C@H](/C=C/OC(=O)C=C(C)C)[C@@]1(C)CC[C@H](C(C)(C)O)[C@@H]2C1`, the Activity entry in the series on Artemia was “Not Active”. Take `CC(=O)C[C@@H]1OCC2=C1[C@H](/C=C/OC(=O)C=C(C)C)[C@@]1(C)CC[C@@H](C(C)(C)O)[C@@H]2C1` [NEOVIBSANIN F]: the LC50 in series [1] came out at 46 µg/mL (≈ 110 µM). With `CC(=O)C[C@@H]1OC(=O)C2=C1[C@H](/C=C/OC(=O)C=C(C)C)[C@@]1(C)CC[C@H](C(C)(C)O)[C@@H]2C1`, the Activity entry with Artemia is on record as “Not Active”. One may read the pIC50 as the negative decadic logarithm of the IC50, by convention in mol/L. A low value points to a high IC50. Regarding `CC(C)=CCC[C@]1(C)/C=C/[C@@H](OC(=O)C=C(C)C)[C@](C)(O)/C=C/C(=O)/C(CO)=C\C1` [VIBSANIN B], the LC50 in series [1] stood at 17.5 µg/mL (≈ 42 µM). Further, in the series on KB, the pIC50 is 5.46. For `COc1cccc2c1C(=O)c1c(O)c3c(c(O)c1C2=O)C[C@@](O)(C(=O)CO)C[C@@H]3O[C@H]1C[C@H](N)[C@H](O)[C@H](C)O1` [DOXORUBICIN], the pIC50 in the series with KB was 8.15. In the series on KB, `CC(=O)C[C@@H]1OCC2=C1[C@H](/C=C/OC(=O)C=C(C)C)[C@@](C)(CCC=C(C)C)C[C@H]2O` [NEOVIBSANIN I] showed a pIC50 of 4.74.
